From PubChem BioAssay AID1963969 (Molecular Pharmacology Branch, DTP, NCI, 2024)
Values belong to the molecule of their own block, whether it stands above or below them.

System: 817829-284-R-J1-PDC multi-cell spheroid viability
Experiment: Anticancer human tumor 817829-284-R-J1-PDC patient-derived colon adenocarcinoma cell line growth inhibition [PI3K]
Settings: for IC50: curve of first compound; for viability, T/C: stronger effect = lower value
From the text: Combinatorial screen of targeted agents with the PI3K inhibitors inavolisib, alpelisib, duvelisib, and copanlisib in multi-cell type tumor spheroids
A high-throughput screen of multi-cell type tumor spheroids was designed to identify active combinations of targeted small molecules and PI3K pathway inhibitors. Complex spheroids include a stromal component modeled by human endothelial cells (HUVEC) and fibroblasts modeled by human mesenchymal stem cells (MSCs). The concentration ranges selected for each drug and investigational agent were based upon clinically achievable concentrations if the clinical Cmax of the agent was known.
Compounds. The drugs and investigational agents: inavolisib (NSC800729), alpelisib (NSC765974), duvelisib (NSC772469), copanlisib (NSC816437), ipatasertib (NSC767898), afuresertib (NSC778305), talazoparib (NSC767125), sapanisertib (NSC764658), selumetinib (NSC741078), tovorafenib (DAY101, NSC766906), vemurafenib (NSC761431), ravoxertinib (NSC781343), sotorasib (NSC818433), MRTX1133 (NSC 836407), abemaciclib (NSC 768073), palbociclib (NSC758247), venetoclax (NSC 766270), SY5609 (NSC837396), enzalutamide (NSC755605), and darolutamide (NSC825331), were obtained from the National Cancer Institute (NCI) Developmental Therapeutics Program Chemical Repository. The FDA-approved anticancer drug set is available from the NCI Developmental Therapeutics Program. […] The stock solutions were prepared in dimethyl sulfoxide (DMSO, Sigma-Aldrich, St. Louis, MO, cat. D2650) at 800-fold the tested concentration and stored at -70 degrees C prior to their use. All drugs and investigational agents were tested over a range starting from a high concentration at or near the clinical Cmax and decreasing in half-log increments. If the clinical Cmax for an agent had not been determined, the highest concentration tested was 10 microM.
Cell Culture. All cells were maintained in an incubator at 37 degrees C and 5% CO2 with 95% humidity. The PDC lines were cultured according to standard operating procedures established by the NCI PDMR (https://pdmr.cancer.gov/sops/default.htm). All PDCs were thawed and cultured in Matrigel-coated flasks prepared with a working solution of 1X Ham's F-12 nutrient mix, without supplementation (Invitrogen, Waltham, MA, cat. 11765054), 100 U/mL penicillin-streptomycin (Invitrogen, cat. 15140122), and 2.5% Matrigel (Corning Inc., Corning, NY, cat. 354248) for the first three passages. The 354836-022-R-J1-PDC, 475296-252-R-J1-PDC, and 997726-040-R-J2-PDC lines were cultured in 6A media, which includes advanced DMEM/F-12 (Thermo Fisher Scientific, cat. 12634028), 10 mM HEPES (Thermo Fisher Scientific, cat. 15630080), 1X GlutaMAX supplement (Thermo Fisher Scientific, cat. 35050061), 0.1 mg/mL primocin (InvivoGen, San Diego, CA, cat. ant-pm-2), 10% defined fetal bovine serum, heat inactivated (HyClone Laboratories Inc., Logan, UT, cat. SH30070.03HI), 50% L-WRN conditioned media (ATCC, cat. CRL-3276), 1.25 mM N-Acetyl-L-cysteine (Sigma-Aldrich, cat. A9165), 10 mM nicotinamide (Sigma-Aldrich, cat. N0636), 1X B-27 supplement (Thermo Fisher Scientific, cat. 17504044), 1X N-2 supplement (Thermo Fisher Scientific, cat. 17502048), and 10 microM Y-27632 dihydrochloride (Tocris Bioscience, Bristol, United Kingdom, cat. 1254). The 624824-186-R-J2-PDC line was cultured in 6C/Colon 1B media, which includes all 6A media components plus 50 ng/mL human EGF recombinant protein (Thermo Fisher Scientific, cat. PHG0311). […]

[1] = second compound 0.0316 µM, first compound 0.0316 µM
[2] = second compound 0.0316 µM, first compound 0.1 µM
[3] = second compound 0.0316 µM, first compound 0.316 µM
[4] = second compound 0.0316 µM, first compound 1 µM
[5] = second compound 0.0316 µM, first compound 3.16 µM
[6] = second compound 0.0316 µM, first compound 10 µM
[7] = second compound 0.1 µM, first compound 0.0316 µM
[8] = second compound 0.1 µM, first compound 0.1 µM
[9] = second compound 0.1 µM, first compound 0.316 µM
[10] = second compound 0.1 µM, first compound 1 µM
[11] = second compound 0.1 µM, first compound 3.16 µM
[12] = second compound 0.1 µM, first compound 10 µM
[13] = second compound 0.316 µM, first compound 0.0316 µM
[14] = second compound 0.316 µM, first compound 0.1 µM
[15] = second compound 0.316 µM, first compound 0.316 µM
[16] = second compound 0.316 µM, first compound 1 µM
[17] = second compound 0.316 µM, first compound 3.16 µM
[18] = second compound 0.316 µM, first compound 10 µM
[19] = second compound 1 µM, first compound 0.0316 µM
[20] = second compound 1 µM, first compound 0.1 µM
[21] = second compound 1 µM, first compound 0.316 µM
[22] = second compound 1 µM, first compound 1 µM
[23] = second compound 1 µM, first compound 3.16 µM
[24] = second compound 1 µM, first compound 10 µM
[25] = second compound 3.16 µM, first compound 0.0316 µM
[26] = second compound 3.16 µM, first compound 0.1 µM
[27] = second compound 3.16 µM, first compound 0.316 µM
[28] = second compound 3.16 µM, first compound 1 µM
[29] = second compound 3.16 µM, first compound 3.16 µM
[30] = second compound 3.16 µM, first compound 10 µM
[31] = second compound 10 µM, first compound 0.0316 µM
[32] = second compound 10 µM, first compound 0.1 µM
[33] = second compound 10 µM, first compound 0.316 µM
[34] = second compound 10 µM, first compound 1 µM
[35] = second compound 10 µM, first compound 3.16 µM
[36] = second compound 10 µM, first compound 10 µM
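Note: spheroids exposed to agents for seven days before readout.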
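Throughout, for viability, T/C: percent of vehicle DMSO control viability which is 100%.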

- IC50 (second compound 0.0316 µM): > 10000 nM
- IC50 (second compound 0.1 µM): < 31.6 nM
- IC50 (second compound 0.316 µM): > 10000 nM
- IC50 (second compound 1 µM): 2620 nM
- IC50 (second compound 3.16 µM): > 10000 nM
- IC50 (second compound 10 µM): < 31.6 nM
Structure (SMILES): CC(Cn1ccc(-c2ccc(C#N)c(Cl)c2)n1)NC(=O)c1cc(C(C)O)[nH]n1 (stereo unspecified) + Cc1nc(NC(=O)N2CCCC2C(N)=O)sc1-c1ccnc(C(C)(C)C(F)(F)F)c1
- viability, T/C [1]: 72.1%
- viability, T/C [2]: 92.1%
- viability, T/C [3]: 118%
- viability, T/C [4]: 82.5%
- viability, T/C [5]: 64.8%
- viability, T/C [6]: 67.4%
- viability, T/C [7]: 42.2%
- viability, T/C [8]: 81.5%
- viability, T/C [9]: 96.1%
- viability, T/C [10]: 103%
- viability, T/C [11]: 85.2%
- viability, T/C [12]: 71.1%
- viability, T/C [13]: 56.9%
- viability, T/C [14]: 94.3%
- viability, T/C [15]: 72.3%
- viability, T/C [16]: 72.1%
- viability, T/C [17]: 75.8%
- viability, T/C [18]: 54.4%
- viability, T/C [19]: 53.1%
- viability, T/C [20]: 89.8%
- viability, T/C [21]: 80.5%
- viability, T/C [22]: 71.5%
- viability, T/C [23]: 42.1%
- viability, T/C [24]: 49.5%
- viability, T/C [25]: 66.7%
- viability, T/C [26]: 55.2%
- viability, T/C [27]: 50.1%
- viability, T/C [28]: 89.7%
- viability, T/C [29]: 42%
- viability, T/C [30]: 57.2%
- viability, T/C [31]: 55.8%
- viability, T/C [32]: 31.7%
- viability, T/C [33]: 47.2%
- viability, T/C [34]: 40.9%
- viability, T/C [35]: 59.4%
- viability, T/C [36]: 35%

- IC50 (second compound 0.0316 µM): > 10000 nM
- IC50 (second compound 0.1 µM): > 10000 nM
- IC50 (second compound 0.316 µM): > 10000 nM
- IC50 (second compound 1 µM): > 10000 nM
- IC50 (second compound 3.16 µM): > 10000 nM
- IC50 (second compound 10 µM): < 31.6 nM
Structure (SMILES): C[C@@H](NC(=O)c1ncnc(N)c1Cl)c1ncc(C(=O)Nc2cc(C(F)(F)F)c(Cl)cn2)s1 + Cc1nc(NC(=O)N2CCCC2C(N)=O)sc1-c1ccnc(C(C)(C)C(F)(F)F)c1
- viability, T/C [1]: 106%
- viability, T/C [2]: 74.4%
- viability, T/C [3]: 71.9%
- viability, T/C [4]: 68.5%
- viability, T/C [5]: 96.3%
- viability, T/C [6]: 88.2%
- viability, T/C [7]: 77.5%
- viability, T/C [8]: 86.3%
- viability, T/C [9]: 81.1%
- viability, T/C [10]: 72.4%
- viability, T/C [11]: 70.7%
- viability, T/C [12]: 83%
- viability, T/C [13]: 79.8%
- viability, T/C [14]: 85.9%
- viability, T/C [15]: 61.9%
- viability, T/C [16]: 59.4%
- viability, T/C [17]: 80.7%
- viability, T/C [18]: 65.6%
- viability, T/C [19]: 56%
- viability, T/C [20]: 86.5%
- viability, T/C [21]: 74.9%
- viability, T/C [22]: 96.6%
- viability, T/C [23]: 61.9%
- viability, T/C [24]: 93.9%
- viability, T/C [25]: 73.8%
- viability, T/C [26]: 53.8%
- viability, T/C [27]: 70.5%
- viability, T/C [28]: 84.8%
- viability, T/C [29]: 102%
- viability, T/C [30]: 74.5%
- viability, T/C [31]: 45.7%
- viability, T/C [32]: 31.2%
- viability, T/C [33]: 61.7%
- viability, T/C [34]: 54.3%
- viability, T/C [35]: 94.9%
- viability, T/C [36]: 42.3%

- IC50 (second compound 0.0316 µM): 638 nM
- IC50 (second compound 0.1 µM): 316 nM
- IC50 (second compound 0.316 µM): 325 nM
- IC50 (second compound 1 µM): 122 nM
- IC50 (second compound 3.16 µM): 56.9 nM
- IC50 (second compound 10 µM): 6.96 nM
Structure (SMILES): CCN1CCN(Cc2ccc(Nc3ncc(F)c(-c4cc(F)c5nc(C)n(C(C)C)c5c4)n3)nc2)CC1 + Cc1nc(NC(=O)N2CCCC2C(N)=O)sc1-c1ccnc(C(C)(C)C(F)(F)F)c1
- viability, T/C (second compound 0.0316 µM, first compound 0.00316 µM): 75.4%
- viability, T/C (second compound 0.0316 µM, first compound 0.01 µM): 55.4%
- viability, T/C [1]: 90.8%
- viability, T/C [2]: 52.5%
- viability, T/C [3]: 66.5%
- viability, T/C [4]: 42.1%
- viability, T/C (second compound 0.1 µM, first compound 0.00316 µM): 91.5%
- viability, T/C (second compound 0.1 µM, first compound 0.01 µM): 70.8%
- viability, T/C [7]: 112%
- viability, T/C [8]: 46.7%
- viability, T/C [9]: 64.4%
- viability, T/C [10]: 59.1%
- viability, T/C (second compound 0.316 µM, first compound 0.00316 µM): 76.4%
- viability, T/C (second compound 0.316 µM, first compound 0.01 µM): 53.1%
- viability, T/C [13]: 74.9%
- viability, T/C [14]: 49.9%
- viability, T/C [15]: 48.2%
- viability, T/C [16]: 47.1%
- viability, T/C (second compound 1 µM, first compound 0.00316 µM): 76%
- viability, T/C (second compound 1 µM, first compound 0.01 µM): 63.5%
- viability, T/C [19]: 56.5%
- viability, T/C [20]: 47.8%
- viability, T/C [21]: 51.5%
- viability, T/C [22]: 43.7%
- viability, T/C (second compound 3.16 µM, first compound 0.00316 µM): 53.1%
- viability, T/C (second compound 3.16 µM, first compound 0.01 µM): 63.5%
- viability, T/C [25]: 61%
- viability, T/C [26]: 39.4%
- viability, T/C [27]: 41.6%
- viability, T/C [28]: 42.6%
- viability, T/C (second compound 10 µM, first compound 0.00316 µM): 66.1%
- viability, T/C (second compound 10 µM, first compound 0.01 µM): 35.1%
- viability, T/C [31]: 51.9%
- viability, T/C [32]: 38.4%
- viability, T/C [33]: 46.7%
- viability, T/C [34]: 41%
